Counter-ions that a name gives are not always drawn. Like-named read-outs stand apart in the source and are kept apart here.
Legend:
tankyrase-2 enzyme = biological target: T1, tankyrase-2 enzyme (Homo sapiens, UniProt Q9H2K2); assay: Inhibition test of tankyrase-2 enzyme (BPS Bioscience kit); format: biochemical; conditions: tankyrase-2 enzyme 15 ng/well, 25° C. for 1 hour; read-out: IC50 (tankyrase-2 enzyme inhibitory activity)
T1 construct: purchased BPS Bioscience 80578
Procedure: (§1) Histones were coated on a 96-well plate provided from BPS Bioscience's kit and left at 4 °C for 16 hours. […] After 1 hour, each well was washed 4 times with PBST, and streptavidin-linked peroxidase (Strep-HRP, 1:50 dilution) was added thereto to measure the amount of ribosylation by PARP enzyme, and reacted at 25° C. for 30 minutes. The plate was washed 4 times with PBST, and then HRP chemiluminescent substrate was finally added thereto and reacted. The amount of histone ribosylation formed by each enzyme was quantified using a Synergy™ H4 Hybrid Multi-Mode Microplate Reader (BioTek Instruments, Inc., US (A)).

PARP-1 enzyme = PARP-1 enzyme (Homo sapiens, UniProt P09874); assay: Inhibition test of poly (ADP-ribose) polymerase [PARP-1] enzyme (BPS Bioscience kit)
Procedure: Histones were coated on a 96-well plate provided from BPS Bioscience's kit and left at 4° C. for 16 hours. […] After 1 hour, each well was washed 4 times with PBST, and streptavidin-linked peroxidase (Strep-HRP, 1:50 dilution) was added thereto to measure the amount of ribosylation by PARP enzyme, and reacted at 25° C. for 30 minutes. The plate was washed 4 times with PBST, and then HRP chemiluminescent substrate was finally added thereto and reacted. The amount of histone ribosylation formed by each enzyme was quantified using a Synergy™ H4 Hybrid Multi-Mode Microplate Reader (BioTek Instruments, Inc., US (A)).

[1] = Stability of the addition salt of Compound 1 (temperature, humidity, light; purity by HPLC); format: physicochemical; conditions: for Stability in the temperature and humidity (in words): temperature and humidity conditions of Table 5
Procedure: The stability of crystals of the addition salt of Compound 1 prepared in the Examples and Comparative Examples above was confirmed, and the results are shown in Table 5 below.
Experiments according to temperature, humidity and light conditions were carried out by a method of confirming purity by HPLC after storage in a stability chamber under each condition.
Each sample was spread thinly in a Petri dish, and then the stability was evaluated after irradiation with UV light having a light intensity of 35 W to a total irradiation amount of 200 watts under conditions of 25° C. and 60% humidity using a photostability test chamber (CARON 6542-2).
Each sample was spread thinly in a Petri dish, and then the stability was evaluated after irradiation with visible light having a light intensity of 35 k Lux to a total irradiation amount of 1200 k lux under conditions of 25° C. and 60% humidity using a photostability test chamber (CARON 6542-2).

[2] = Measurement of solubility in water (shake-flask, UPLC); format: physicochemical; conditions: for Water solubility: shake-flask shaken for 24 hours, UPLC
Procedure: Compounds are dissolved in DMSO and measured by UPLC, and then a calibration curve is drawn. The compounds saturated by the Shake-flask method are filtered and then measured by UPLC, and it is substituted into a calibration curve to calculate the concentration.

[3] = Measurement of solubility in various solvents; format: physicochemical; conditions: 0.1 g of sample, 15 to 25° C., within 30 minutes
Procedure: Specifically, 0.1 g of sample was accurately weighed, put into each solvent, and shaken and mixed vigorously for 30 seconds every 5 minutes at 15 to 25° C., and the amount dissolved within 30 minutes was measured.

tankyrase-1 enzyme = tankyrase-1 enzyme (Homo sapiens, UniProt O95271); assay: biochemical
Procedure: as §1

[4] = Purity and stability under accelerated and long-term storage conditions (HPLC); format: physicochemical; conditions: for Purity under long-term storage conditions (area %) / Long-term storage conditions (related substances) (area %): 25±2° C., humidity 60±5%; for Purity under accelerated storage conditions (area %) / Accelerated storage conditions (related substances) (area %): 40±2° C., humidity 75±5%
Procedure: The purity and stability of the crystalline anhydride of the citrate prepared in Example 2 and the crystalline monohydrate of the citrate prepared in Example 3 according to the present invention were evaluated, and the results are shown in Tables 8 and 9 below.
In the tables below, stability tests were conducted under accelerated storage conditions of a temperature of 40±2° C. and humidity of 75±5%, and purity and stability tests were conducted under long-term storage conditions of a temperature of 25±2° C. and humidity of 60±5%. Experimental results were measured under the same conditions as in Experimental Example 1 using HPLC (product name: agilent 1290, manufacturer: Agilent).

[5] = Temperature of 40° C., humidity of 70%, 3 days
[6] = UV 200 watt, 25° C. and 60% humidity
[7] = Visible 1200k lux, 25° C. and 60% humidity
[8] = 3 months, listed as Crystalline anhydride of citrate in Example 2
[9] = 6 months, listed as Crystalline anhydride of citrate in Example 2
[10] = initial, listed as Crystalline anhydride of citrate in Example 2
[11] = 3 months, listed as Crystalline monohydrate of citrate in Example 3
[12] = 6 months, listed as Crystalline monohydrate of citrate in Example 3
[13] = initial, listed as Crystalline monohydrate of citrate in Example 3

T1 sequence (Q9H2K2 849-1166): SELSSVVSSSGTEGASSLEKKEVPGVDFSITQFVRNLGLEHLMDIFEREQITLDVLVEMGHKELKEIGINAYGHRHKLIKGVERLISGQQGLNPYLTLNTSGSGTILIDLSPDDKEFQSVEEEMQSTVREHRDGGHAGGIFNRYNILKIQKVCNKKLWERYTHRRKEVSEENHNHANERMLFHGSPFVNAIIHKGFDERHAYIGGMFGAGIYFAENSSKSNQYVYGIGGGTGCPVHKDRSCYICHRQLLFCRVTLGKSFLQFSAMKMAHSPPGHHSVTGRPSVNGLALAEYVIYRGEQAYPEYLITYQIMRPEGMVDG
Sequence of PARP-1 enzyme (P09874 whole entry): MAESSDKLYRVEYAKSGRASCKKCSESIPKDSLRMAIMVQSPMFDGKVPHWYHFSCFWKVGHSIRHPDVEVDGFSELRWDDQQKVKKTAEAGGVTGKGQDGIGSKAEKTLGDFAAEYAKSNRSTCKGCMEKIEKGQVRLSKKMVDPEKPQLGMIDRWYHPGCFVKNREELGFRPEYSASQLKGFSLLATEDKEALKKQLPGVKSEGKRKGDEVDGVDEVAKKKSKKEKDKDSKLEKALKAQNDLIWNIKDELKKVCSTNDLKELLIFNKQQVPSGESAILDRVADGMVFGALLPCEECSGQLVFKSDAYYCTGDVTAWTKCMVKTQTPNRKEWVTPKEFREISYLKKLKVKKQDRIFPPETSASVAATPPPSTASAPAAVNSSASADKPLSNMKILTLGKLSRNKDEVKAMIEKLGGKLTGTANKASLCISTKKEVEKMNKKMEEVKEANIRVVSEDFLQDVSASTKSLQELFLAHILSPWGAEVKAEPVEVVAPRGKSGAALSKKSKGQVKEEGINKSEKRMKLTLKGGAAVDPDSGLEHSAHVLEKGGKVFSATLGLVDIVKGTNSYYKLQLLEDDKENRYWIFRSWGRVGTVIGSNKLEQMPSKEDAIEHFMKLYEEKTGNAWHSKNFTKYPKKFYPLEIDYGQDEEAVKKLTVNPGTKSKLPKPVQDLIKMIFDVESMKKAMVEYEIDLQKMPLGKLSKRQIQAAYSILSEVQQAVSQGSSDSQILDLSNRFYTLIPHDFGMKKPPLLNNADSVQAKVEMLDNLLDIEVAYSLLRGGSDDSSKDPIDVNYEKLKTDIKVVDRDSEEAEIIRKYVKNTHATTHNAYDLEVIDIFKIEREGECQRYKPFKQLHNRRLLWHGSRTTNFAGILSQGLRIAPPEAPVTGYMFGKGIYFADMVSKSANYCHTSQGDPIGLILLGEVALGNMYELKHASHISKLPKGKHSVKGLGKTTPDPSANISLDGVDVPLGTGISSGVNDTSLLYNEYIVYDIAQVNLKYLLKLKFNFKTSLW
Sequence of tankyrase-1 enzyme (O95271 1001-1327): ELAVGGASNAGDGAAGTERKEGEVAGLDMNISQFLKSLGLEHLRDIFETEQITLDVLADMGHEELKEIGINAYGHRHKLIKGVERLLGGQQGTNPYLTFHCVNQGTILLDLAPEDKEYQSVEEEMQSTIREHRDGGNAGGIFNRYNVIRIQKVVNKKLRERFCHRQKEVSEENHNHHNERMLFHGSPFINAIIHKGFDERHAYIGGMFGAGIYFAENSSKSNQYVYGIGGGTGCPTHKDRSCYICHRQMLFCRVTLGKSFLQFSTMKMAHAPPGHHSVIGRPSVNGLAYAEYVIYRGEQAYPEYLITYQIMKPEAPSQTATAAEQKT

Which IC50 (tankyrase-2 enzyme) does the source give for `Cl.Cl.N#Cc1ccc(N2CCN(Cc3ccc4c5c(c(=O)[nH]c4c3)CCCN5)CC2)nc1` [Comparative Example 2, Dichloride Salt of 6-{4-[(5-oxo-1,2,3,4,5,6-hexahydrobenzo[h][1,6]naphthyridin-8-yl)methyl]piperazine-1-yl}nicotinonitrile] here?
Its IC50 is 1.12 nM.

What about the IC50 (PARP-1 enzyme; read-out: IC50 (PARP-1 enzyme inhibitory activity), PARP-1 enzyme 50 ng/well, 25° C. for 1 hour) of the same compound?
The IC50 was 3.03 nM.

What about the “Purity (%)” value ([1]; Humidity of 75%, 3 days) of the same compound?
Its value is 97.76%.

What about the “Purity (%)” value ([1]; Initial value) of the same compound?
Its value is 97.89%.

What about the “Purity (%)” value [1, 5] of the same compound?
The value was 97.83%.

And the “Purity (%)” value ([1]; Temperature of 50° C., 3 days)?
The value was 97.79%.

What about the “Purity (%)” value ([1]; UV 200 watt - dark) of the same compound?
The value was 97.89%.

And the “Photostability (in words)” value ([1]; UV200 watt and Visible1200 k lux)?
Its value is “remarkably poor photostability”.

What about the “Purity (%)” value [1, 6] of the same compound?
Its value is 86.89%.

And the “Purity (%)” value ([1]; Visible 1200k lux - dark)?
Its value is 97.89%.

What about the “Purity (%)” value [1, 7] of the same compound?
The value was 93.40%.

What about the “Stability in the temperature and humidity (in words)” value [1] of the same compound?
The value was “stable”.

What about the “Water solubility” value [2] of the same compound?
Its value is 392 µM.

Which “Solubility (0.1 g/mL)” value ([3]; Aqueous HCl solution (pH 1.1), listed as Free form) does the source give for `N#Cc1ccc(N2CCN(Cc3ccc4c5c(c(=O)[nH]c4c3)CCCN5)CC2)nc1` [Compound 1, 6-{4-[(5-oxo-1,2,3,4,5,6-hexahydrobenzo[h][1,6]naphthyridin-8-yl)methyl]piperazin-1-yl}nicotinonitrile] here?
The value was 350 mL.

What about the “Solubility (0.1 g/mL)” value ([3]; DMF, listed as Free form) of the same compound?
The value was 8 mL.

And the “Solubility (0.1 g/mL)” value ([3]; EtOH, listed as Free form)?
The value was ≥ 1000 mL.

What about the “Solubility (0.1 g/mL)” value ([3]; MeOH, listed as Free form) of the same compound?
The value was 300 mL.

What about the “Solubility (0.1 g/mL)” value ([3]; Water, listed as Free form) of the same compound?
Its value is ≥ 1200 mL.

What about the “Water solubility” value ([2]; listed as Crystal (free form) of the compound of Formula 1 in Comparative Example 1-1) of the same compound?
The value was 1 µM.

With `N#Cc1ccc(N2CCN(Cc3ccc4c5c(c(=O)[nH]c4c3)CCCN5)CC2)nc1` [Example 2, Citrate Anhydride of 6-{4-[(5-oxo-1,2,3,4,5,6-hexahydrobenzo[h][1,6]naphthyridin-8-yl)methyl]piperazine-1-yl}nicotinonitrile] as the compound, how does the “Solubility (0.1 g/mL)” value ([3]; Aqueous HCl solution (pH 1.1), listed as Crystalline anhydride of citrate in Example 2) read?
The value was ≤ 100 mL.

And the “Solubility (0.1 g/mL)” value ([3]; DMF, listed as Crystalline anhydride of citrate in Example 2)?
Its value is 8 mL.

And the “Solubility (0.1 g/mL)” value ([3]; EtOH, listed as Crystalline anhydride of citrate in Example 2)?
Its value is ≥ 1000 mL.

What about the “Solubility (0.1 g/mL)” value ([3]; MeOH, listed as Crystalline anhydride of citrate in Example 2) of the same compound?
Its value is ≥ 100 mL.

And the “Solubility (0.1 g/mL)” value ([3]; Water, listed as Crystalline anhydride of citrate in Example 2)?
Its value is ≤ 1000 mL.

And the IC50 (tankyrase-1 enzyme)?
Its IC50 is 4.31 nM.

And the “Purity under long-term storage conditions (area %)” value ([4]; 1 month)?
The value was 99.64%.

And the “Purity under long-term storage conditions (area %)” value ([4]; 3 months)?
The value was 99.66%.

What about the “Long-term storage conditions (related substances) (area %)” value [4, 8] of the same compound?
The value was 0.28%.

And the “Purity under long-term storage conditions (area %)” value ([4]; 6 months)?
The value was 99.58%.

And the “Long-term storage conditions (related substances) (area %)” value [4, 9]?
The value was 0.29%.

What about the “Long-term storage conditions (related substances) (area %)” value ([4]; 9 months) of the same compound?
The value was 0.31%.

And the “Purity under long-term storage conditions (area %)” value ([4]; 9 months)?
The value was 99.67%.

What about the “Long-term storage conditions (related substances) (area %)” value ([4]; 12 months) of the same compound?
The value was 0.29%.

And the “Purity under long-term storage conditions (area %)” value ([4]; 12 months)?
The value was 99.72%.

And the “Long-term storage conditions (related substances) (area %)” value ([4]; 18 months)?
Its value is 0.33%.

What about the “Purity under long-term storage conditions (area %)” value ([4]; 18 months) of the same compound?
Its value is 99.73%.

What about the “Long-term storage conditions (related substances) (area %)” value ([4]; 24 months) of the same compound?
The value was 0.34%.

And the “Purity under long-term storage conditions (area %)” value ([4]; 24 months)?
The value was 99.74%.

And the “Long-term storage conditions (related substances) (area %)” value ([4]; 30 months)?
Its value is 0.34%.

And the “Long-term storage conditions (related substances) (area %)” value ([4]; 36 months)?
Its value is 0.30%.

What about the “Purity under long-term storage conditions (area %)” value ([4]; 36 months) of the same compound?
The value was 99.73%.

What about the “Purity under long-term storage conditions (area %)” value ([4]; initial) of the same compound?
Its value is 99.66%.

What about the “Long-term storage conditions (related substances) (area %)” value [4, 10] of the same compound?
The value was 0.26%.

And the “Purity under accelerated storage conditions (area %)” value ([4]; 1 month)?
Its value is 99.64%.

What about the “Purity under accelerated storage conditions (area %)” value ([4]; 3 months) of the same compound?
The value was 99.65%.

And the “Accelerated storage conditions (related substances) (area %)” value [4, 8]?
The value was 0.24%.

And the “Purity under accelerated storage conditions (area %)” value ([4]; 6 months)?
The value was 99.54%.

What about the “Accelerated storage conditions (related substances) (area %)” value [4, 9] of the same compound?
Its value is 0.28%.

And the “Purity under accelerated storage conditions (area %)” value ([4]; initial)?
Its value is 99.66%.

And the “Accelerated storage conditions (related substances) (area %)” value [4, 10]?
Its value is 0.26%.

What about the IC50 (tankyrase-2 enzyme) of the same compound?
The IC50 was 1.06 nM.

And the IC50 (PARP-1 enzyme)?
The IC50 was 2.62 nM.

And the “Purity (%)” value ([1]; Humidity of 75%, 3 days)?
Its value is 97.81%.

What about the “Purity (%)” value ([1]; Initial value) of the same compound?
Its value is 97.97%.

What about the “Purity (%)” value [1, 5] of the same compound?
The value was 97.79%.

And the “Purity (%)” value ([1]; Temperature of 50° C., 3 days)?
The value was 97.86%.

And the “Purity (%)” value ([1]; UV 200 watt - dark)?
Its value is 98.38%.

And the “Purity (%)” value [1, 6]?
The value was 96.94%.

And the “Purity (%)” value ([1]; Visible 1200k lux - dark)?
Its value is 98.39%.

And the “Purity (%)” value [1, 7]?
Its value is 96.73%.

What about the “Stability in the temperature and humidity (in words)” value [1] of the same compound?
The value was “stable”.

And the “Solubility in water (in words)” value ([2]; compared to other salts)?
The value was “remarkably excellent solubility in water”.

And the “Water solubility” value ([2]; listed as Crystalline anhydride of citrate of Compound 1)?
Its value is 1067 µM.

With `N#Cc1ccc(N2CCN(Cc3ccc4c5c(c(=O)[nH]c4c3)CCCN5)CC2)nc1` [Example 3, Citrate Monohydrate of 6-{4-[(5-oxo-1,2,3,4,5,6-hexahydrobenzo[h][1,6]naphthyridin-8-yl)methyl]piperazine-1-yl}nicotinonitrile] as the compound, how does the “Solubility (0.1 g/mL)” value ([3]; Aqueous HCl solution (pH 1.1), listed as Crystalline monohydrate of citrate in Example 3) read?
Its value is 50 mL.

And the “Solubility (0.1 g/mL)” value ([3]; DMF, listed as Crystalline monohydrate of citrate in Example 3)?
Its value is 2.9 mL.

And the “Solubility (0.1 g/mL)” value ([3]; EtOH, listed as Crystalline monohydrate of citrate in Example 3)?
Its value is 350 mL.

What about the “Solubility (0.1 g/mL)” value ([3]; MeOH, listed as Crystalline monohydrate of citrate in Example 3) of the same compound?
Its value is 9 mL.

And the “Solubility (0.1 g/mL)” value ([3]; Water, listed as Crystalline monohydrate of citrate in Example 3)?
Its value is 400 mL.

And the “Long-term storage conditions (related substances) (area %)” value [4, 11]?
Its value is 0.29%.

What about the “Long-term storage conditions (related substances) (area %)” value [4, 12] of the same compound?
The value was 0.32%.

What about the “Long-term storage conditions (related substances) (area %)” value [4, 13] of the same compound?
The value was 0.38%.

What about the “Accelerated storage conditions (related substances) (area %)” value [4, 11] of the same compound?
Its value is 0.34%.

What about the “Accelerated storage conditions (related substances) (area %)” value [4, 12] of the same compound?
The value was 0.32%.

What about the “Accelerated storage conditions (related substances) (area %)” value [4, 13] of the same compound?
The value was 0.38%.

What does the source list for `N#Cc1ccc(N2CCN(Cc3ccc4c5c(c(=O)[nH]c4c3)CCCN5)CC2)nc1` [Example 4, Citrate Dihydrate of 6-{4-[(5-oxo-1,2,3,4,5,6-hexahydrobenzo[h][1,6]naphthyridin-8-yl)methyl]piperazine-1-yl}nicotinonitrile]?
Solubility (0.1 g/mL) ([3]; Aqueous HCl solution (pH 1.1), listed as Crystalline dihydrate of citrate in Example 4): 55 mL; Solubility (0.1 g/mL) ([3]; DMF, listed as Crystalline dihydrate of citrate in Example 4): 2.5 mL; Solubility (0.1 g/mL) ([3]; EtOH, listed as Crystalline dihydrate of citrate in Example 4): 450 mL; Solubility (0.1 g/mL) ([3]; MeOH, listed as Crystalline dihydrate of citrate in Example 4): 9 mL; Solubility (0.1 g/mL) ([3]; Water, listed as Crystalline dihydrate of citrate in Example 4): ≥ 400 mL
